The source of these data is ChEMBL document CHEMBL1671694, “OXA-24 carbapenemase gene flanked by XerC/XerD-like recombination sites in different plasmids from different Acinetobacter species isolated during a nosocomial outbreak” (2010).

The test system of experiment [1] is Acinetobacter baylyi. In words: Antimicrobial activity against Acinetobacter baylyi ADP1 by microdilution method. The class given is functional. On the technique in general: Dilution methods test growth across graded concentrations, often in twofold steps.
Experiment [2] has as its system Acinetobacter baylyi. In words: Antimicrobial activity against Acinetobacter baylyi ADP1 harboring pMMCU1 plasmid expressing bla-OXA-24 gene by microdilution method. The class given is functional.

Converted amounts (≈) assume the structure as drawn.

Regarding `C[C@@H](O)[C@H]1C(=O)N2C(C(=O)O)=C(SCCNC=N)C[C@H]12` [IMIPENEM ANHYDROUS], the minimum inhibitory concentration (MIC) (as a rule, the smallest concentration in the dilution series that meets the test's criterion for growth inhibition) in the experiment on Acinetobacter baylyi [1] was 0.094 µg/mL (≈ 0.314 µM); with Acinetobacter baylyi [2], greater than 32 µg/mL.

As for `C[C@@H](O)[C@H]1C(=O)N2C(C(=O)O)=C(S[C@@H]3CN[C@H](C(=O)N(C)C)C3)[C@H](C)[C@H]12` [MEROPENEM], the figures for the MIC against Acinetobacter baylyi [1] and with Acinetobacter baylyi [2] were 0.25 µg/mL (≈ 0.652 µM) and greater than 32 µg/mL, respectively.
